Laboratory results published in patent US10072011B2, “Substituted bridged urea analogs as sirtuin modulators” (GlaxoSmithKline Intellectual Property (No.2) Limited, priority 2014, dated 2018).

Target: T1, SIRT1 (Homo sapiens, UniProt Q96EB6)
T1 sequence (Q96EB6 1-747): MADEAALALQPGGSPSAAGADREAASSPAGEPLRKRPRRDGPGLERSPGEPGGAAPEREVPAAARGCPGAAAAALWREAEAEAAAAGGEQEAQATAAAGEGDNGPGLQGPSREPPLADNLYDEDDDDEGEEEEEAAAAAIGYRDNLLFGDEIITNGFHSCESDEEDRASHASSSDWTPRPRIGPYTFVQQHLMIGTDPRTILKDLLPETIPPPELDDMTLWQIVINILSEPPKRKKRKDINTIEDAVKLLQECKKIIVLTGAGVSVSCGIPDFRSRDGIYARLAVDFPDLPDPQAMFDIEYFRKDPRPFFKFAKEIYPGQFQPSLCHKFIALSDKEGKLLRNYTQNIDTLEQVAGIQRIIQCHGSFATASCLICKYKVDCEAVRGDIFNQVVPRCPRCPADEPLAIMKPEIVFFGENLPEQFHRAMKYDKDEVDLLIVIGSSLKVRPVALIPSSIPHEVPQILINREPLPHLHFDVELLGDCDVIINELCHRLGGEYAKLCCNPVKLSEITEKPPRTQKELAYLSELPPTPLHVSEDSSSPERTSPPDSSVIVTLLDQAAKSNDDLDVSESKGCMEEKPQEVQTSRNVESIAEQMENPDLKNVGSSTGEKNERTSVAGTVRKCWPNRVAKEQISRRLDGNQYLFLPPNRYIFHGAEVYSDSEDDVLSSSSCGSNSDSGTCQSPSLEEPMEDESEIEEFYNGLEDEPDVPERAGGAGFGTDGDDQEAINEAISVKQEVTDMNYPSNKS
Experiment: Trp mass spectrometry assay of SIRT1 activation (Ac-R-H-K-K(Ac)-W-NH2 peptide)
Format: biochemical
Details: Trp peptide 0.5 μM, 120 μM βNAD+, 10 nM SIRT1, 25 min at 25° C.; for Emax: 25 min, read-out: TRP MAX RESP (percent maximum fold activation)
Procedure: The Trp mass spectrometry assay was conducted as follows. […] The SIRT1 protein was obtained by cloning the SirT1 gene into a T7-promoter containing vector, which was then expressed in BL21(DE3) bacterial cells and purified as described in further detail below. Test compound was added at varying concentrations to this reaction mixture and the resulting reactions were monitored. After the 25 minute incubation with SIRT1, 10 μL of 10% formic acid was added to stop the reaction. The resulting reactions were sealed and frozen for later mass spec analysis. The relative SIRT1 activity was then determined by measuring the amount of O-acetyl-ADP-ribose (OAADPR) formed (or, alternatively, the amount of deacetylated Trp peptide generated) by the NAD-dependent sirtuin deacetylation reaction in the presence of varying concentrations of the test compound versus control reactions lacking the test compound. The degree to which the test agent activated deacetylation by SIRT1 was expressed as EC1.5 (i.e., the concentration of compound required to increase SIRT1 activity by 50% over the control lacking test compound), and Percent Maximum Activation (i.e., the maximum activity relative to control (100%) obtained for the test compound).
This time point was the same as that used for test compounds and, within the linear range, the endpoint represents a change in velocity.
For the above assay, SIRT1 protein was expressed and purified as follows. The SirT1 gene was cloned into a T7-promoter containing vector and transformed into BL21(DE3). The protein was expressed by induction with 1 mM IPTG as an N-terminal His-tag fusion protein at 18° C. overnight and harvested at 30,000×g. Cells were lysed with lysozyme in lysis buffer (50 mM Tris-HCl, 2 mM Tris[2-carboxyethyl]phosphine (TCEP), 10 μM ZnCl2, 200 mM NaCl) and further treated with sonication for 10 min for complete lysis. The protein was purified over a Ni-NTA column (Amersham) and fractions containing pure protein were pooled, concentrated and run over a sizing column (Sephadex S200 26/60 global). The peak containing soluble protein was collected and run on an Ion-exchange column (MonoQ). Gradient elution (200 mM-500 mM NaCl) yielded pure protein. This protein was concentrated and dialyzed against dialysis buffer (20 mM Tris-HCl, 2 mM TCEP) overnight. The protein was aliquoted and frozen at −80° C. until further use.
“NT” means not tested; “ND” means not determinable.

Compound	Emax (relative to control (100%)) [%]	TRP Activity (EC1.5, concentration of test compound that results in 150% activation of SIRT1)	TRP MAX RESP (percent maximum fold activation) (relative to control (100%))
O=C(NC1CC1(F)F)c1ccc2c(n1)N(C(=O)Nc1ccccn1)[C@H]1CCN2C1 (stereo partly drawn) [Example 20, (4S)—N7-(2,2-difluorocyclopropyl)-N5-(pyridin-2-yl)-3,4-dihydro-1,4-methanopyrido[2,3-b][1,4]diazepine-5,7(2H)-dicarboxamide]	> 150	A (EC1.5<1 μM)	–
O=C(NCC1CC1)c1ccc2c(n1)N(C(=O)Nc1ccc(Cl)cn1)[C@H]1CCN2C1 [Example 51, (4S)—N5-(5-chloropyridin-2-yl)-N7-(cyclopropylmethyl)-3,4-dihydro-1,4-methanopyrido[2,3-b][1,4]diazepine-5,7(2H)-dicarboxamide]	> 150	A (EC1.5<1 μM)	–
O=C(NCc1cccc(F)c1)c1ccc2c(n1)N(C(=O)Nc1ccccn1)[C@H]1CCN2C1 [Example 236, (4S)—N7-(3-fluorobenzyl)-N5-(pyridin-2-yl)-3,4-dihydro-1,4-methanopyrido[2,3-b][1,4]diazepine-5,7(2H)-dicarboxamide]	> 150	A (EC1.5<1 μM)	–
O=C(NC1CCCOC1)c1ccc2c(n1)N(C(=O)Nc1ccccn1)[C@H]1CCN2C1 (stereo partly drawn) [Example 5, (4S)—N-5-(pyridin-2-yl)-N-7-(tetrahydro-2H-pyran-3-yl)-3,4-dihydro-1,4-methanopyrido [2,3-b] [1, 4] diazepine-5, 7(2H)-dicarboxamide]	> 150	B (EC1.5 1-25 μM)	–
C[Si](C)(C)CNC(=O)c1ccc2c(n1)N(C(=O)Nc1ccccn1)[C@H]1CCN2C1 [Example 108, (4S)—N5-(pyridin-2-yl)-N7-((trimethylsilyl)methyl)-3,4-dihydro-1,4-methanopyrido[2,3-b][1,4]diazepine-5,7(2H)-dicarboxamide]	> 150	A (EC1.5<1 μM)	–
COc1cc(NC(=O)N2c3nc(C(=O)NC4CC4(F)F)ccc3N3CC[C@H]2C3)ncn1 (single isomer, unassigned) [Example 303]	–	A (EC1.5<1 μM)	B (Fold Activation<150%)
C[C@@H](NC(=O)c1ccc2c(n1)N(C(=O)Nc1ncccn1)[C@H]1CCN2C1)C(F)(F)F [Example 130, (4S)—N5-(pyrimidin-2-yl)-N7-((R)-1,1,1-trifluoropropan-2-yl)-3,4-dihydro-1,4-methanopyrido[2,3-b][1,4]diazepine-5,7(2H)-dicarboxamide]	> 150	A (EC1.5<1 μM)	–
C#CC(C)(C)NC(=O)c1ccc2c(n1)N(C(=O)Nc1ccccn1)[C@H]1CCN2C1 [Example 253, (4S)—N7-(2-methylbut-3-yn-2-yl)-N5-(pyridin-2-yl)-3,4-dihydro-1,4-methanopyrido[2,3-b][1,4]diazepine-5,7(2H)-dicarboxamide]	> 150	B (EC1.5 1-25 μM)	–
C[C@@H](NC(=O)c1ccc2c(n1)N(C(=O)Nc1cc3c(cn1)OCCC3)[C@H]1CCN2C1)C(F)(F)F [Example 138, (4S)—N5-(3,4-dihydro-2H-pyrano[2,3-c]pyridin-6-yl)-N7-((R)-1,1,1-trifluoropropan-2-yl)-3,4-dihydro-1,4-methanopyrido[2,3-b][1,4]diazepine-5,7(2H)-dicarboxamide]	> 150	A (EC1.5<1 μM)	–

Next, values leading:

Emax (relative to control (100%)) [%]	TRP Activity (EC1.5, concentration of test compound that results in 150% activation of SIRT1)	TRP MAX RESP (percent maximum fold activation) (relative to control (100%))	Compound
> 150	B (EC1.5 1-25 μM)	–	O=C(NCc1nccs1)c1ccc2c(n1)N(C(=O)Nc1cc(OC[C@H](O)CO)ccn1)[C@H]1CCN2C1 [Example 195, (4S)—N5-(4-((R)-2,3-dihydroxypropoxy)pyridin-2-yl)-N7-(thiazol-2-ylmethyl)-3,4-dihydro-1,4-methanopyrido[2,3-b][1,4]diazepine-5,7(2H)-dicarboxamide]
> 150	A (EC1.5<1 μM)	–	C[C@@H](NC(=O)c1ccc2c(n1)N(C(=O)Nc1ncco1)[C@H]1CCN2C1)C(F)(F)F [Example 75, (4S)—N5-(oxazol-2-yl)-N7-((R)-1,1,1-trifluoropropan-2-yl)-3,4-dihydro-1,4-methanopyrido[2,3-b][1,4]diazepine-5,7(2H)-dicarboxamide]
> 150	B (EC1.5 1-25 μM)	–	C[C@@H](NC(=O)c1ccc2c(n1)N(C(=O)Nc1cc(OCC(=O)O)ccn1)[C@H]1CCN2C1)C(F)(F)F [Example 265, 2-((2-((4S)-7-(((R)-1,1,1-trifluoropropan-2-yl)carbamoyl)-2,3,4,5-tetrahydro-1,4-methanopyrido[2,3-b][1,4]diazepine-5-carboxamido)pyridin-4-yl)oxy)acetic acid]
> 150	B (EC1.5 1-25 μM)	–	C[C@@H](NC(=O)c1ccc2c(n1)N(C(=O)Nc1ccon1)[C@H]1CCN2C1)C(F)(F)F [Example 251, (4S)—N5-(isoxazol-3-yl)-N7-((R)-1,1,1-trifluoropropan-2-yl)-3,4-dihydro-1,4-methanopyrido[2,3-b][1,4]diazepine-5,7(2H)-dicarboxamide]
> 150	B (EC1.5 1-25 μM)	–	O=C(NCc1cscn1)c1ccc2c(n1)N(C(=O)Nc1cc(OC[C@H](O)CO)ccn1)[C@H]1CCN2C1 [Example 199, (4S)—N5-(4-((R)-2,3-dihydroxypropoxy)pyridin-2-yl)-N7-(thiazol-4-ylmethyl)-3,4-dihydro-1,4-methanopyrido[2,3-b][1,4]diazepine-5,7(2H)-dicarboxamide]
> 150	A (EC1.5<1 μM)	–	O=C(NCC(F)(F)F)c1ccc2c(n1)N(C(=O)Nc1cc(OC[C@H](O)CO)ccn1)[C@H]1CCN2C1 [Example 89, (4S)—N5-(4-((R)-2,3-dihydroxypropoxy)pyridin-2-yl)-N7-(2,2,2-trifluoroethyl)-3,4-dihydro-1,4-methanopyrido[2,3-b][1,4]diazepine-5,7(2H)-dicarboxamide]
> 150	B (EC1.5 1-25 μM)	–	O=C(NCC(F)(F)F)c1ccc2c(n1)N(C(=O)Nc1ccc3[nH]cnc3c1)[C@H]1CCN2C1 [Example 231, (4S)—N5-(1H-benzo[d]imidazol-5-yl)-N7-(2,2,2-trifluoroethyl)-3,4-dihydro-1,4-methanopyrido[2,3-b][1,4]diazepine-5,7(2H)-dicarboxamide]
> 150	A (EC1.5<1 μM)	–	CC(=O)Nc1ccnc(NC(=O)N2c3nc(C(=O)NCC(F)(F)F)ccc3N3CC[C@H]2C3)c1 [Example 167, (4S)—N5-(4-acetamidopyridin-2-yl)-N7-(2,2,2-trifluoroethyl)-3,4-dihydro-1,4-methanopyrido[2,3-b][1,4]diazepine-5,7(2H)-dicarboxamide]
